Measurements reported in publication PMC6222329 (Molecules : A Journal of Synthetic Chemistry and Natural …, 2018).

Legend:
BChE (Equine) = molecular target: T1, BChE (Equine) (Equus caballus, UniProt P81908); test: biochemical; format: biochemical
T1 construct: purchased Sigma-Aldrich (Steinheim, Germany)
Experimental: (§1) The assay was performed in two steps.
(§2) All enzymes were obtained from Sigma-Aldrich (Steinheim, Germany). Ellman’s reagent and the substrates were obtained from Fluka (Buchs, Switzerland). The chemicals used to prepare the buffer solution were purchased from Merck (Darmstadt, Germany).
(§3) The enzyme inhibitory activities of the synthesized compounds were investigated by applying Ellman’s method. Enzyme solutions were dissolved in gelatin solution (1%; 2.5 units/mL). […] Then, the reaction was initiated by the addition of Ellman’s reagent 5,5′-Dithiobis(2-nitrobenzoic acid) (DTNB; 20 µL/well, 10 mM) and the substrate (10 µL/well, 75 mM). […] The enzyme solution was processed as a control. All readings were adjusted with blank-reading. All assays were performed in four independent wells. […] Absorbance differences between the two readings were taken, and percentage inhibition rates were calculated according to the following formula: % Inhibition=[(A(C)−A(B))−(A(I)−A(B))]/(A(C)−A(B))×100.
(§4) • Blank (B): the well in which the inhibitor compound and substrate were not added; • Control (C): the well where the inhibitor compound was not added; • A(B): the difference in absorbance reading for the blank; • A(C): the difference in absorbance reading for the control; • A(I): the difference in absorbance reading for the inhibitor compounds.

BChE (Human) = molecular target: T2, BChE (Human) (Homo sapiens, UniProt P06276); test: BChE inhibition, Ellman's method; format: biochemical; conditions: for IC50: read-out: BChE (Human) IC50
T2 construct: purchased Sigma-Aldrich (Steinheim, Germany)
Experimental: as §1, §2, §3, §4

[1] = molecular target: T3, AChE (Electrophorus electricus) (Electrophorus electricus, UniProt O42275); test: AChE inhibition, Ellman's method; format: biochemical
T3 construct: purchased Sigma-Aldrich (Steinheim, Germany)
Experimental: as §1, §2, §3, §4

AChE (Human) = molecular target: T4, AChE (Human) (Homo sapiens, UniProt P22303); test: AChE inhibition, Ellman's method; format: biochemical
T4 construct: purchased Sigma-Aldrich (Steinheim, Germany)
Experimental: as §1, §2, §3, §4

[2] = tested on: murine fibroblast healthy cell line (NIH3T3); test: MTT cell viability assay; format: cell-based; conditions: 24 h, 0.000316 µM to 1000 µM, read-out: IC50 against NIH3T3
Experimental: The active compounds (4a, 4b, 4e, 4i, 4m, 4n, 4o, and 4t) were chosen to determine their cytotoxic activity toward a murine fibroblast healthy cell line (NIH3T3). After incubating the cells with active compounds at concentrations of 0.000316 µM to1000 µM for 24 h, the cell viability was measured using the 3-(4,5-dimethylthiazol-2-yl)-2,5-diphenyltetrazolium (MTT) assay. The inhibition percentage was calculated for each concentration of the test compounds. The IC50 values of the compounds were determined using a non-linear regression analysis over the calculated percentage inhibition values, and they are presented in Table 2. Accordingly, the cytotoxicity test proposed that the active derivatives were nontoxic against NIH3T3 cells at their active concentrations against BChE.
Healthy murine embryonic fibroblast cells (NIH3T3 cell line) were used for the cytotoxicity tests. The cell line and selected compounds were prepared for an MTT assay as reported previously. The optical densities (OD) of 96 well plates were recorded at 540 nm. […]

T4 sequence (P22303 32-614): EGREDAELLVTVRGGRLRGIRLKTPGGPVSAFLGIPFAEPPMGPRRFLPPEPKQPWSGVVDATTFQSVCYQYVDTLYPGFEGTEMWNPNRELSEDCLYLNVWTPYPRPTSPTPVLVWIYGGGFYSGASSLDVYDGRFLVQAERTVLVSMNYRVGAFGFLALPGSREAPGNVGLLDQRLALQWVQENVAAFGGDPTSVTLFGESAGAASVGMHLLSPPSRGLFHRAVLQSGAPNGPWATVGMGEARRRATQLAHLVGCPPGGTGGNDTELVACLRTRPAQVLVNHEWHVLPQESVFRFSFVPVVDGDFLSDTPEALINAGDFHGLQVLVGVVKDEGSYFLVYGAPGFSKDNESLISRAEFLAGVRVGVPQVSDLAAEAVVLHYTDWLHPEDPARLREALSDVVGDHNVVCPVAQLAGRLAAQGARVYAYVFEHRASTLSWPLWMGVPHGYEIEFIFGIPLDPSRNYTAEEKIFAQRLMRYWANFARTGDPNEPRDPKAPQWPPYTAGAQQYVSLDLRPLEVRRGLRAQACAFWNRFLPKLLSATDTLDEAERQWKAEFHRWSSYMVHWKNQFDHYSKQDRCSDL
T3 sequence (O42275 24-633): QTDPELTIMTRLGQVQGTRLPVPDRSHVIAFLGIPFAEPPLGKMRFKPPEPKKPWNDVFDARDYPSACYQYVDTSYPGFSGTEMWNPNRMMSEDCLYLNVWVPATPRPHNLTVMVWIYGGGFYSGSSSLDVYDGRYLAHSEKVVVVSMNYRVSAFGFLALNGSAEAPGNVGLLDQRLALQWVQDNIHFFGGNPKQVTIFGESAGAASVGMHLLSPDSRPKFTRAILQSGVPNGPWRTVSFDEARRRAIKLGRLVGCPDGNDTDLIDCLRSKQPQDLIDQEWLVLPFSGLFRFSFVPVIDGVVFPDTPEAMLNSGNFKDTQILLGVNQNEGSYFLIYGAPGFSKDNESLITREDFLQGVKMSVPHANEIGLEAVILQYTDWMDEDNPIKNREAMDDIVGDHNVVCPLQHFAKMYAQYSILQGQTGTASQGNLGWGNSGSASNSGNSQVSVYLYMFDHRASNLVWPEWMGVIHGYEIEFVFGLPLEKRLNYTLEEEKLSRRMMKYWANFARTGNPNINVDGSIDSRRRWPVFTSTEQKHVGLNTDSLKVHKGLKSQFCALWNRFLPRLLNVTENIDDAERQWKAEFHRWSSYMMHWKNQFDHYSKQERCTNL
T2 sequence (P06276 29-602): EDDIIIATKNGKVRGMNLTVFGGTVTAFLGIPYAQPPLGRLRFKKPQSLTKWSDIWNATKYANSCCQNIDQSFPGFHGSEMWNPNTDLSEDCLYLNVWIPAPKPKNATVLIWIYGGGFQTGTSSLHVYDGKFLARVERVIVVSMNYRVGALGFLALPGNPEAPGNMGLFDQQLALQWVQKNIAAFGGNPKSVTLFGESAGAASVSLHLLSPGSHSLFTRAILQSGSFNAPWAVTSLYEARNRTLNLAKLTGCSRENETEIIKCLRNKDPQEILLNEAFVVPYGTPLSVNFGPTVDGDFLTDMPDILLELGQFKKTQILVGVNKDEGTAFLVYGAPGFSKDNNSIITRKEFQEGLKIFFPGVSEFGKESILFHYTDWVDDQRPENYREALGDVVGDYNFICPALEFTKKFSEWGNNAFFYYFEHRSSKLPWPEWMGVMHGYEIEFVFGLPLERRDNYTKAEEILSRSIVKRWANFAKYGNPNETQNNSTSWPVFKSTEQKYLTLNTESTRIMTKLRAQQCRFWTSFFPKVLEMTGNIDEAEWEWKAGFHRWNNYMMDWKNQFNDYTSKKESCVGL
T1 sequence (P81908 whole entry): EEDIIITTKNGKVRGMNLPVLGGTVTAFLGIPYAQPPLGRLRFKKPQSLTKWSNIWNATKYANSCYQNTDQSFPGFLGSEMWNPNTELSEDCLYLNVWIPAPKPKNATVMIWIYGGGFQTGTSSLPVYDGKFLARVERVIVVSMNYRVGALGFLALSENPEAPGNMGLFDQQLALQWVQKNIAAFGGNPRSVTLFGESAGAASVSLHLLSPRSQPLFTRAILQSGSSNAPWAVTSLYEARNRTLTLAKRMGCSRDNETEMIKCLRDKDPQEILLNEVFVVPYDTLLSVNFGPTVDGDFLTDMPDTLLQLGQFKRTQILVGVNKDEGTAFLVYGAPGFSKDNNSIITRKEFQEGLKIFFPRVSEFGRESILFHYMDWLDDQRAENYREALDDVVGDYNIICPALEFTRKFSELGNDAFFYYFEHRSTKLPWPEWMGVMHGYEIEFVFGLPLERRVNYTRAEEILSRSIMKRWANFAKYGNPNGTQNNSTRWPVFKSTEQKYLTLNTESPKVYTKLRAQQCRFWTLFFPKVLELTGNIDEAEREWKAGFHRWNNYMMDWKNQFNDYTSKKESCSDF

Row | SMILES | IC50 (BChE (Equine)) | BChE (Equine) inhibitory activity (%) ± SD (BChE (Equine); 10^-3 M) | BChE (Equine) inhibitory activity (%) ± SD (BChE (Equine); 10^-4 M) | BChE (Equine) inhibitory activity (%) ± SD (BChE (Equine); 10^-5 M) | BChE (Equine) inhibitory activity (%) ± SD (BChE (Equine); 10^-6 M) | BChE (Equine) inhibitory activity (%) ± SD (BChE (Equine); 10^-7 M) | BChE (Equine) inhibitory activity (%) ± SD (BChE (Equine); 10^-8 M) | BChE (Equine) inhibitory activity (%) ± SD (BChE (Equine); 10^-9 M) | BChE (Human) inhibitory activity (%) ± SD (BChE (Human); 10^-3 M) | BChE (Human) inhibitory activity (%) ± SD (BChE (Human); 10^-4 M) | BChE (Human) inhibitory activity (%) ± SD (BChE (Human); 10^-5 M) | BChE (Human) inhibitory activity (%) ± SD (BChE (Human); 10^-6 M) | BChE (Human) inhibitory activity (%) ± SD (BChE (Human); 10^-7 M) | BChE (Human) inhibitory activity (%) ± SD (BChE (Human); 10^-8 M) | BChE (Human) inhibitory activity (%) ± SD (BChE (Human); 10^-9 M) | IC50 (BChE (Human)) | AChE (Electrophorus electricus) inhibitory activity (%) ± SD ([1]; 10^-3 M) | AChE (Electrophorus electricus) inhibitory activity (%) ± SD ([1]; 10^-4 M) | AChE (Human) inhibitory activity (%) ± SD (AChE (Human); 10^-3 M) | AChE (Human) inhibitory activity (%) ± SD (AChE (Human); 10^-4 M) | also measured
1 | CN(C)CCN1CCN(C(=S)SCC(=O)Nc2c3ccccc3nc3ccccc23)CC1 [Compound 4a, 2-(9-Acridinylamino)-2-oxoethyl 4-(2-(dimethylamino)ethyl)piperazine-1-carbodithioate] | 226 ± 8 nM | 99.13±3.21% | * 91.13 ± 2.94% | 84.80±2.76% | 52.10±1.04% | 39.90±0.81% | 28.24±0.54% | 19.69±0.99% | 98.50±2.46% | * 93.25 ± 2.24% | 86.20±1.46% | 55.00±1.11% | 36.21±0.97% | 30.20±0.68% | 15.79±0.81% | 243 ± 9 nM | 60.13±1.54% | 17.03 ± 0.48% | 62.20±1.05% | 18.15 ± 0.51% | IC50 [2]: 26.8 µM
2 | CN(C)CCCN1CCN(C(=S)SCC(=O)Nc2c3ccccc3nc3ccccc23)CC1 [Compound 4b, 2-(9-Acridinylamino)-2-oxoethyl 4-(3-(dimethylamino)propyl)piperazine-1-carbodithioate] | 264 ± 12 nM | 98.16±3.11% | * 82.50 ± 2.07% | 70.30 ±1.80% | 46.10±0.74% | 41.80±0.81% | 33.04±0.78% | 26.35±0.77% | 97.55±2.05% | * 84.18 ± 2.21% | 72.99 ±1.35% | 45.26±0.85% | 40.87±0.67% | 35.28±0.53% | 28.74±0.50% | 222 ± 10 nM | 79.95±1.78% | 32.41 ± 1.01% | 75.66±1.17% | 35.49 ± 1.00% | IC50 [2]: 25.6 µM
3 | O=C(CSC(=S)N1CCN(CCO)CC1)Nc1c2ccccc2nc2ccccc12 [Compound 4e, 2-(9-Acridinylamino)-2-oxoethyl 4-(2-hydroxyethyl)piperazine-1-carbodithioate] | 1420 ± 68 nM | 97.00±3.16% | * 95.98 ± 2.88% | 57.53±1.89% | 29.52±1.07% | 24.26±0.54% | 18.89±0.84% | 10.77±0.58% | 98.95±2.10% | * 96.57 ± 2.03% | 55.00±1.20% | 30.62±1.28% | 26.54±0.74% | 17.89±0.53% | 8.72±0.30% | 1370 ± 57 nM | 48.67±1.51% | 7.09 ± 0.64% | 50.22±1.12% | 10.13 ± 0.51% | IC50 [2]: 325 µM
4 | O=C(CSC(=S)N1CCN(C(=O)c2ccco2)CC1)Nc1c2ccccc2nc2ccccc12 [Compound 4q, 2-(9-Acridinylamino)-2-oxoethyl 4-(furan-2-carbonyl)piperazine-1-carbodithioate] | – | 92.00±3.44% | 39.90 ± 1.36% | – | – | – | – | – | 95.29±2.16% | 42.48 ± 1.22% | – | – | – | – | – | – | 68.60±1.57% | 16.35 ± 0.39% | 70.29±1.18% | 20.28 ± 0.51% | –
5 | O=C(CSC(=S)N1CCOCC1)Nc1c2ccccc2nc2ccccc12 [Compound 4r, 2-(9-Acridinylamino)-2-oxoethyl morpholine-4-carbodithioate] | – | 91.26±3.42% | 45.30 ± 1.88% | – | – | – | – | – | 94.18±2.62% | 43.29 ± 1.17% | – | – | – | – | – | – | 68.20±1.69% | 37.33 ± 1.03% | 64.93±1.21% | 40.70 ± 1.00% | –
6 | O=C(CSC(=S)N1CCCCC1)Nc1c2ccccc2nc2ccccc12 [Compound 4s, 2-(9-Acridinylamino)-2-oxoethyl piperidine-1-carbodithioate] | – | 86.72±3.07% | 38.40 ± 0.74% | – | – | – | – | – | 84.27±2.16% | 34.99 ± 0.63% | – | – | – | – | – | – | 44.51±0.96% | 32.17 ± 1.23% | 49.05±0.88% | 35.20 ± 1.12% | –
7 | CC1CCCCN1C(=S)SCC(=O)Nc1c2ccccc2nc2ccccc12 (stereo not shown) [Compound 4t, 2-(9-Acridinylamino)-2-oxoethyl 2-methylpiperidine-1-carbodithioate] | 1520 ± 72 nM | 96.06±3.61% | * 55.00 ± 1.74% | 49.04±0.68% | 41.33±0.41% | 35.75±0.53% | 30.66±0.59% | 28.50±0.66% | 97.28±3.00% | * 54.26 ± 1.27% | 48.19±1.08% | 38.35±0.88% | 36.47±0.60% | 32.40±0.57% | 29.77±0.41% | 1610 ± 62 nM | 81.22±2.77% | 15.94 ± 0.42% | 85.44±1.72% | 14.51 ± 0.44% | –
8 | O=C(CSC(=S)N1CCC(Cc2ccccc2)CC1)Nc1c2ccccc2nc2ccccc12 [Compound 4u, 2-(9-Acridinylamino)-2-Oxoethyl 4-Benzylpiperidine-1-Carbodithioate] | – | 32.20±0.59% | 29.50 ± 0.48% | – | – | – | – | – | 38.33±0.87% | 31.21 ± 0.50% | – | – | – | – | – | – | 69.30±1.28% | 25.88 ± 0.74% | 65.77±1.17% | 30.71 ± 0.52% | –
